Measurements reported in US10421723B2, “2,3-diacylated, 2- and 3-mono-acylated alkylated imino sugars exhibiting glucosidase inhibition and their method of use” (priority 2016, dated 2019).

Experiments:
target viruses = settings: cited from earlier work
[1] = Stability and conversion in simulated intestinal fluids; assay type: in vitro ADME; settings: 4 h, 5 μM, 37° C.
Description: The stability of exemplary compounds of the present invention and their conversion to active derivatives in simulated intestinal fluids is evaluated. The working solutions of test compounds and control compound chlorambucil were prepared in DMSO at the concentration of 500 μM. 2 μL of the working solution and 198 μL of simulated intestinal fluids were added into centrifuge tubes to achieve a final concentration of 5 μM, and incubated at 37° C. water bath with shaking at approximately 60 rpm. One of the centrifuge tubes was taken at designated time points including 0, 1, 2, 3 and 4 hours. The assay was performed in duplicate. The reaction was stopped by adding 5 volumes of cold quench solution (acetonitrile containing internal standards (IS, 100 nM Alprazolam, 500 nM Labetalol and 2 μM Ketoprofen)) to the spiked simulated intestinal fluids samples at the appointed time points. Another time 0 samples of parent compound were also prepared, and they were used to calculate the conversion percentages of prodrugs to parent compound (used as T0-2). Samples were vortexed for 2 minutes and centrifuged at 20,000 g for 15 minutes at 4° C. to precipitate protein. And then 50 μL of the supernatant was transferred to a new 96-well plate with 100 μL quench solution and 100 μL water for LC-MS/MS analysis.

[2] = Stability and conversion in simulated gastric fluid; assay type: in vitro ADME; settings: 4 h, 37° C.
Description: The stability of exemplary compounds of the present invention and their conversion to their active derivatives in simulated gastric fluid is evaluated. The working solutions of test compounds and control compound erythromycin were prepared in DMSO at the concentration of 500 μM. 2 μL of the working solution and 198 μL of simulated gastric fluids were added into centrifuge tubes to achieve a final concentration of […] incubated at 37° C. water bath with shaking at approximately 60 rpm. One of the centrifuge tubes was taken at designated time points including 0, 30, 60, 90 and 120 minutes. The assay was performed in duplicate. The reaction was stopped by adding 5 volumes of cold quench solution (acetonitrile containing internal standards (IS, 100 nM Alprazolam, 500 nM Labetalol and 2 μM Ketoprofen)) to the spiked simulated gastric fluids samples at the appointed time points. Another time 0 samples of parent compound were also prepared, and they were used to calculate the conversion percentages of prodrugs to parent compound (used as T0-2). Samples were vortexed for 2 minutes and centrifuged at 20,000 g for 15 minutes at 4° C. to precipitate protein. And then 50 μL of the supernatant was transferred to a new 96-well plate with 100 μL quench solution and 100 μL water for LC-MS/MS analysis.

For `CCCC(=O)O[C@H]1CN2CC[C@H](O)[C@@H]2[C@@H](O)[C@@H]1O` [Celgosivir], the “concentrations to achieve EC50 values in tissue culture against their target viruses” value (target viruses) is listed as “near millimolar”.

For `CCCCN1C[C@H](O)[C@@H](O)[C@H](O)[C@H]1CO` [NBDNJ, N-butyl-DNJ], the “concentrations to achieve EC50 values in tissue culture against their target viruses” value (target viruses) is given as “near millimolar”.

In the case of `CCCCOC(=O)OC1CN(CCCCCCN(C(=O)NC(C)(C)C)C2CCCCC2)C(CO)C(O)C1OC(=O)OCCCC` (stereo not shown) [XXVII(a)], the “Stability in Intestinal Fluid, Remaining” value [1] is reported as 65.7% and the “Stability in Gastric fluids, Remaining” value [2] is reported as 93%.

For `CCCCOC(=O)OC1CN(CCCCCCN(C(=O)NC(C)(C)C)C2CCCCC2)C(CO)C(O)C1O` (stereo not shown) [XXVIII(a)], the “Stability in Intestinal Fluid, Remaining” value [1] was 62.7% and the “Stability in Gastric fluids, Remaining” value [2] was 98.1%.

With `CC(C)COC(=O)OC1CN(CCCCCCN(C(=O)NC(C)(C)C)C2CCCCC2)C(CO)C(O)C1O` (stereo not shown) [XXVIII(b)] the “Stability in Intestinal Fluid, Remaining” value [1] was 70.9% and the “Stability in Gastric fluids, Remaining” value [2] was 89.2%.

In the case of `CC(NC(=O)OC(C)(C)C)C(=O)OC1C(O)CN(CCCCCCN(C(=O)NC(C)(C)C)C2CCCCC2)C(CO)C1O` (stereo not shown) [XXX(a)], the “Stability in Intestinal Fluid, Remaining” value [1] is reported as 30.7% and the “Stability in Gastric fluids, Remaining” value [2] is reported as 81.1%.
